Measurements published in patent US20210371379A1, “NOVEL SALT OF 4-({(4S)-1-(4-CARBAMIMIDOYLBENZOYL)-4-[4(METHYLSULFONYL)PIPERAZIN-1-YL]-L-PROLYL}AMINO) BENZOIC ACID AND NOVEL CRYSTAL FORM THEREOF” (ONO PHARMACEUTICAL CO., LTD., priority 2018, published 2021).

Experiments:
Format in all cases: physicochemical
[1] = Hygroscopicity evaluation (isotherm adsorption curve); conditions: 25° C., relative humidity in the range of 5% to 70%
Method: The isotherm adsorption curve was measured under the following conditions. Ditosylate, monoacetate and pentahydrate of Compound A were measured under Condition 1, and besylate of […] was measured under Condition 2.
Measurement temperature: 25° C.
Measurement range: Relative humidity of 5 to 95%
Measurement interval: Relative humidity of 5%
Measurement range: Relative humidity of 0 to 95%

[2] = Chemical stability test: residual rate measurement by HPLC after storage; conditions: for Residual rate (%): versus sample stored at −20° C.
Method: The chemical stability of crystals of ditosylate, dibesylate, pentahydrate and monoacetate of Compound A was measured by the following method and conditions.
About 1.5 to 3 mg of a test compound was weighed in a lab tube and stored under the following conditions.
After storage, the residual rate (%) of the stored sample under each condition was calculated by HPLC based on the area percentage of main medicine of the sample stored at −20° C. In addition, appearance was visually observed and compared with the sample stored at −20° C. […]
Comparison object of each sample was stored at −20° C.
An evaluation sample (0.8 mg) was dissolved in a mixed solution of acetonitrile/100 mM NaClO4 […] about 0.8 mL (sample concentration: 1.0 mg/mL) acetonitrile/100 mmol/L NaClO4 aq. (pH3.0) (3/1) to prepare a solution of 1.0 mg/mL (concentration as salt).
Detector: Ultraviolet absorptiometer (measurement wavelength: 265 nm)
Column: SPELCO Ascentis Express (150 mm×4.6 mm, S-2.7 μm)
Column temperature: 25° C.
Mobile phase: Solution A: 100 mmol/L NaClO4 aq. (pH 3.0), Solution B: acetonitrile
Area measurement range: 34.6 minutes

[3] = Physical stability: powder X-ray measurement before and after storage; conditions: 25° C.-60% RH, 2 months
Method: The physical stability of monoacetate and ditosylate of Compound A was measured by the following method and conditions.
Test compounds were respectively weighed in a lab tube at about 20 mg for monoacetate and about 40 mg for ditosylate, and stored under the following conditions.
Device: D8 DISCOVER with GADDS manufactured by BRUKER axs

[4] = crystals stored at 40° C.-75% RH (opened) for 2 months
[5] = crystals stored at 60° C. for 1 month
[6] = crystals stored at 40° C. for 2 months

SMILES | weight gain [1] [wt %] | Residual rate (%) [2, 4] [%] | Residual rate (%) [2, 5] [%] | Residual rate (%) [2, 6] [%] | change of powder X-ray diffraction spectrum before and after storage [3] | weight gain ([1]; listed as monoacetate of Compound A, monoacetate) [wt %] | Residual rate (%) ([2]; crystals stored at 40° C. for 2 months, monoacetate) | Residual rate (%) ([2]; crystals stored at 40° C.-75% RH (opened) for 2 months, monoacetate) | Residual rate (%) ([2]; crystals stored at 60° C. for 1 month, monoacetate) | weight gain ([1]; listed as pentahydrate of Compound A) [wt %] | residual rate ([2]; under the conditions of 40° C.-75%)
CS(=O)(=O)N1CCN([C@H]2C[C@@H](C(=O)Nc3ccc(C(=O)O)cc3)N(C(=O)c3ccc(C(=N)N)cc3)C2)CC1.O=S(=O)(O)c1ccccc1 [Dibesylate, 4-({(4S)-1-(4-Carbamimidoylbenzoyl)-4-[4-(methylsulfonyl)piperazin-1-yl]-L-prolyl}amino) benzoic acid dibenzenesulfonate] | 1.9 | 99.5 | 100 | – | – | – | – | – | – | – | –
CS(=O)(=O)N1CCN([C@H]2C[C@@H](C(=O)Nc3ccc(C(=O)O)cc3)N(C(=O)c3ccc(C(=N)N)cc3)C2)CC1.Cc1ccc(S(=O)(=O)O)cc1 [Ditosylate, 4-({(4S)-1-(4-Carbamimidoylbenzoyl)-4-[4-(methylsulfonyl)piperazin-1-yl]-L-prolyl}amino) benzoic acid di(4-toluenesulfonate)] | 1.5 | 99.3 | 100 | 100 | no significant peak change was recognized | – | – | – | – | – | –
CS(=O)(=O)N1CCN([C@H]2C[C@@H](C(=O)Nc3ccc(C(=O)O)cc3)N(C(=O)c3ccc(C(=N)N)cc3)C2)CC1 [Monoacetate, 4-({(4S)-1-(4-Carbamimidoylbenzoyl)-4-[4-(methylsulfonyl)piperazin-1-yl]-L-prolyl}amino) benzoic acid monoacetate] | – | – | – | – | change in the spectra was recognized | 6.4 | 99 | 95 | 97.5 | – | –
CS(=O)(=O)N1CCN([C@H]2C[C@@H](C(=O)Nc3ccc(C(=O)O)cc3)N(C(=O)c3ccc(C(=N)N)cc3)C2)CC1 [Pentahydrate, 4-({(4S)-1-(4-Carbamimidoylbenzoyl)-4-[4-(methylsulfonyl)piperazin-1-yl]-L-prolyl}amino) benzoic acid pentahydrate] | – | 37 | 23.1 | 36.3 | – | – | – | – | – | 12.2 | reduced residual rate
